Measured values: patent US11224565B2, “N-acyldipeptide derivatives and their uses” (NeoStrata Company, Inc., priority 2011, dated 2022)
Peptide text beside a SMILES is read from it.

Tests used:
Format in all cases: in vivo, human
Disturbed keratinization = experiment: Summary of test results in volunteer subjects: disturbed keratinization; settings: efficacy grade
Description: (§1) In one embodiment, a composition for topical application to test its therapeutic effect was formulated by dissolving a bioactive dipeptide derivative of the present invention in a solution prepared from 40 parts water, 40 parts ethanol and 20 parts propylene glycol by volume (WEP442). In another embodiment, a composition was formulated by dissolving a bioactive dipeptide derivative of the present invention in a non-aqueous solution prepared from 80 parts ethanol and 20 parts propylene glycol by volume (EP82). In yet another embodiment, a composition was formulated first by dissolving a bioactive dipeptide derivative of the present invention in a solution prepared from 80 parts water and 20 parts propylene glycol by volume (WP82), and the solution thus prepared was mixed with an oil-in-water emulsion or cream. In another embodiment, the volunteer subject topically applied the test compositions containing N-acyldipeptide derivatives of the present invention on involved skin or lesions once or twice daily for several weeks or until the involved lesions completely cleared and clinically changed to normal skin. As a control study, the subject also topically applied a vehicle control composition on the involved skin or lesions twice daily for the same period. In yet another embodiment, the volunteer subject topically applied once or twice daily the test compositions containing N-acyldipeptide derivatives of the present invention on the skin site above arthritic joints or painful muscles to provide therapeutic effects for the systemic disorders via topical administration. Some test results are summarized as follows. DK: Disturbed keratinization

[1] = system: age spots including lentigines and keratosis; experiment: Topical treatment of age spots on face; settings: twice daily, after 4 weeks; 1% (w/v) N-Ac-L-Cys-L-Tyr-NH2 in WEP442 pH 6.4 left side, 0.4% (w/v) N-Ac-L-Cys-L-Cys-NH2 in WEP442 right side
Description: A subject had multiple age spots including lentigines and keratosis on their face. Topical treatments with conventional medications including hydroquinone with or without glycolic acid had been unsuccessful. The subject topically applied twice daily to the left side of their face 1% (w/v) N—Ac-L-Cys-L-Tyr-NH2 in WEP442, pH 6.4 (Example 5), and to the right side of their face 0.4% (w/v) N—Ac-L-Cys-L-Cys-NH2 in WEP442 (Example 5) for several months. […] Continued topical applications of the formulations should improve or eradicate lentigines and keratosis of the face.

[2] = system: Aging related changes of skin, nail and hair; experiment: Summary of test results in volunteer subjects: aging related changes; settings: efficacy grade
Description: as §1, with “AG: Aging related changes of skin, nail and hair” for “DK: Disturbed keratinization”

[3] = system: Deranged immune disorders and inflammation; experiment: Summary of test results in volunteer subjects: deranged immune disorders and inflammation; settings: efficacy grade
Description: as §1, with “DI: Deranged immune disorders and inflammation” for “DK: Disturbed keratinization”

Nerve disorders = experiment: Summary of test results in volunteer subjects: nerve disorders; settings: efficacy grade
Description: as §1, with “ND: Nerve disorders” for “DK: Disturbed keratinization”

[4] = system: inflammation, dermatitis, or eczema lesions; experiment: Topical application to chronic inflammation, dermatitis, eczema or allergic skin lesions, clinical evaluation
Description: (§2) In another embodiment, the volunteer subject topically applied the test compositions containing N-acyldipeptide derivatives of the present invention on involved skin or lesions once or twice daily for several weeks or until the involved lesions completely cleared and clinically changed to normal skin. As a control study, the subject also topically applied a vehicle control composition on the involved skin or lesions twice daily for the same period.

insect bites = experiment: Topical application to insect bite lesions (itch, erythema, inflammation); settings: 10% (w/w) cream on insect bites of left arm
Procedure: A subject, having intensive itch and erythema on their left arm from insect bites, topically applied 10% (w/w) N—Ac-L-Leu-Gly-NH2 cream as formulated in Example 3 on the involved lesions.
A subject had multiple lesions of insect bites (mosquitoes) over the face and arms with itch and inflammatory lesions of more than 1 cm in size. For testing purposes, the subject divided the lesions into three groups: the first group was treated with vehicle control, the second and third groups were treated with active compositions. The subject topically applied twice daily 0.5% (w/v) N—Ac-L-Val-L-Ala-NH2 solution in WEP442, pH 5.9 on the lesions of the second group, and 0.5% (w/v) N—Ac-L-Tyr-L-Tyr-NH2 solution in WEP442, pH 6.7 (Example 5) on the lesions of the third group. […] The lesions in the second and third groups also started to improve over the next few days. At the end of three days, while there was no discernible change in the lesions treated with vehicle control in the first group, the lesions in the second and third groups had 90-100% improvement with nearly complete disappearance of inflammatory lesions.
A subject had multiple lesions of chigger bites (grass mites) over the legs with intensive itch and red inflammatory lesions. The subject topically applied twice daily 0.5% (w/v) N—Ac-L-Val-L-Ala-NH2 solution in WEP442, pH 6.7 (Example 5) on the lesions. […] The lesions on the legs had 100% improvement as judged by clinical evaluation.
as §2

[5] = system: arthritis of both knees with edema and pain; experiment: Sublingual administration in arthritis of knees; settings: 1 mg sublingually, kept under the tongue 15 minutes; after a few hours
Procedure: A subject had severe arthritis of both knees with edema and pain for many years. The conventional therapy had provided only temporary relief of knee pain and edema. The subject took N—Ac-L-Pro-Gly-NH2 (1 mg) sublingually and kept the dipeptide under the tongue for 15 minutes before swallowing.

[6] = Systemic administration under the tongue, tolerability; settings: 1 mg powder under the tongue, twice daily for three days, person
Procedure: The subject took 1 mg N—Ac-L-Tyr-L-Tyr-OH powder under the tongue until it was dissolved completely. The same dose was taken twice daily for the next three days. […] Such systemic administration of the bioactive dipeptide derivative of the present invention is believed to have the potential of treating diseases, symptoms or syndromes associated with immune, tumors, cancers, nervous, vascular, musculoskeletal, cutaneous system, or other tissues and systems.

forearm skin = experiment: Skin thickness of forearm by micrometer calipers after topical application; settings: for increase in skin thickness of treated left forearm: 1% (w/v) in WEP442 topically twice daily, vehicle forearm no change
Procedure: In one of the studies related to skin changes associated with aging, skin thickness was measured by micrometer calipers as follows. The skin was grasped with a 2×6 cm metal hinge; the internal faces of which were coated with emery cloth to prevent slippage, and manually squeezed to threshold subject discomfort. Combined thickness of two whole-skin layers including thickness of the two hinge leaves was measured with micrometer calipers. Thickness of the two hinge leaves was subtracted to determine the actual thickness of two whole-skin layers. Triplicate measurements on treated sites were done and an average number was used for calculation of the skin thickness. In other studies, test sites of skin 17 mm in diameter were used, the circular sites were marked with permanent ink. Intervening control sites were also 17 mm in diameter. Thickness of skin of all sites was measured directly by means of an electronic digital caliper. In this instance the jaws of the caliper were opened to 17 mm, applied with pressure to the skin sites and then closed to firm tightness. Thickness of skin was then read off the screen of the calipers. Measurements of all sites were made in triplicates.

SMILES	DK (Disturbed keratinization)	age spot lesions of face [1]	AG [2]	DI [3]	ND (Nerve disorders)	also measured
CC(=O)N[C@@H](CS)C(=O)N[C@@H](CS)C(N)=O [N-Ac-L-Cys-L-Cys-NH2] (Ac-Cys-Cys-NH2)	2+ (2+: 50% Efficacy)	started to improve noticeably	3+ (3+: 75% Efficacy)	2+ (2+: 50% Efficacy)	2+ (2+: 50% Efficacy)	
CC(=O)N[C@@H](CS)C(=O)N[C@@H](Cc1ccc(O)cc1)C(N)=O [N-Ac-L-Cys-L-Tyr-NH2] (Ac-Cys-Tyr-NH2)	2+ (2+: 50% Efficacy)	started to improve noticeably	2+ (2+: 50% Efficacy)	2+ (2+: 50% Efficacy)	3+ (3+: 75% Efficacy)	
CC(=O)N[C@@H](CC(C)C)C(=O)NCC(N)=O [N-Ac-L-Leu-Gly-NH2] (Ac-Leu-Gly-NH2)	3+ (3+: 75% Efficacy)		3+ (3+: 75% Efficacy)	4+ (4+: 95-100% Efficacy)	4+ (4+: 95-100% Efficacy)	improvement as judged by clinical evaluation ([4]; 6% (w/w) oil-in-water emulsion twice daily, chronic eczema large body areas, end of 10 days): 95%; itch after topical application ([4]; 6% (w/w) oil-in-water emulsion twice daily, chronic eczema large body areas, person): stopped within a few minutes; improvement as judged by clinical evaluation ([4]; 7% (w/w) oil-in-water emulsion twice daily, chronic eczema, end of 10 days): 90-100%; itch after topical application ([4]; 7% (w/w) oil-in-water emulsion twice daily, chronic eczema, person): stopped within a few minutes; improvement as judged by clinical evaluation ([4]; 10% (w/w) cream twice daily, chronic eczema right leg, end of one week): 50%; itch after topical application ([4]; 10% (w/w) cream twice daily, chronic eczema right leg, person): stopped within a few minutes; itch after topical application (insect bites): stopped within a few minutes; time the pruritus did not return (insect bites): 6 h; erythema and inflammation (insect bites; after 12 hours): improved
CC(=O)N1CCC[C@H]1C(=O)NCC(N)=O [N-Ac-L-Pro-Gly-NH2] (Ac-Pro-Gly-NH2)	2+ (2+: 50% Efficacy)		2+ (2+: 50% Efficacy)	3+ (3+: 75% Efficacy)	4+ (4+: 95-100% Efficacy)	edema and pain of arthritic knees [5]: diminished substantially
CC(=O)N[C@@H](Cc1ccc(O)cc1)C(=O)N[C@@H](Cc1ccc(O)cc1)C(=O)O [N-Ac-L-Tyr-L-Tyr-OH] (Ac-Tyr-Tyr-OH)	3+ (3+: 75% Efficacy)		4+ (4+: 95-100% Efficacy)	3+ (3+: 75% Efficacy)	4+ (4+: 95-100% Efficacy)	irritation or side reactions [6]: did not provoke any irritation or side reactions; itch after topical application ([4]; 0.4% (w/v) in WEP442 pH 3.7 twice daily, inflammatory dermatitis on both arms): stopped within a few minutes; improvement as judged by clinical evaluation ([4]; 0.4% (w/v) in WEP442 pH 3.7 twice daily, inflammatory dermatitis on both arms, end of one week): 95%; increase in skin thickness of treated left forearm (forearm skin; after 2 weeks): 16%; increase in skin thickness of treated left forearm (forearm skin; after 4 weeks): 17%; increase in skin thickness of treated left forearm (forearm skin; after one week): 16%; appearance of treated left forearm at end of treatment (forearm skin; 1-3% (w/v) in WEP442 topically twice daily for 1-6 weeks as in the example, vehicle forearm still loose, thin and wrinkled): more firm, smooth, plump, and less wrinkled when lifted
